From US20100292231A1, “Indazole Compounds for Treating Inflammatory Disorders, Demyelinating Disorders and Cancers” (priority 2007, published 2010) come the findings set out here.

Holding throughout (assay type): cell-based
One experiment deals with MV-4-11. Nature of the experiment: MTS cellular proliferation assay. Conditions: Homo sapiens, MV4-11, 72 hour incubation, read-out: Growth inhibitory activity (in vivo EC50 nM). From the text:
(§1) The viability of Flt3 expressing cells can be evaluated using a tetrazolium salt reduction cell-based assay. […] BaF3, both wild type and mutant, as well as transfected strains, MV4-11 and MOLM14 are well-characterized Flt3-dependent humanized or human cell lines which express active Flt3 receptors (see, Yee et al. Blood (2002)100 (8):2941-2949; Levis et al. (2002) 99(11): 3885-3891). These cell lines were used to determine the ability of the compounds provided herein to inhibit Flt3 in intact cells. In each case, and by methods known to those practiced in the art of cell culture, proliferation was measured after 72 hour incubation with the compounds provided herein using a standard MTS protocol (Promega Cat #5430 “Cell Titer 96 Aqueous Non-radioactive Cell Proliferation Assay”).
(§2) In general, cells were plated at 10,000-20,000 cells per well in DMEM medium with 0.5% serum. The compound plate was set up by aliquoting into column 1 of a 96 well 300 ul polypropylene plate, the negative control (DMSO), aliquoting into column 12 the positive control and titrating the test compound in serial dilutions into columns 2-1 l. An aliquot from each well of the compound plate was transferred to the plated cells and then incubated @ […] in 5% CO2. [00538] MTS tetrazolium compound (Owen's reagent) was thawed in a H2O bath. 20 μl of MTS tetrazolium was added to each well of optical plate and the cells were incubated @ 37° C. in 5% CO2 for 2 hours. The absorbance measured at 490 nm using a microplate reader.
On the technique in general: Formazan colour is commonly taken as a measure of viable cells.

A further experiment deals with T1, BaF3-D835N (Homo sapiens, UniProt P36888, D835N, cells depend on it).
T1 sequence (P36888 1-993 D835N): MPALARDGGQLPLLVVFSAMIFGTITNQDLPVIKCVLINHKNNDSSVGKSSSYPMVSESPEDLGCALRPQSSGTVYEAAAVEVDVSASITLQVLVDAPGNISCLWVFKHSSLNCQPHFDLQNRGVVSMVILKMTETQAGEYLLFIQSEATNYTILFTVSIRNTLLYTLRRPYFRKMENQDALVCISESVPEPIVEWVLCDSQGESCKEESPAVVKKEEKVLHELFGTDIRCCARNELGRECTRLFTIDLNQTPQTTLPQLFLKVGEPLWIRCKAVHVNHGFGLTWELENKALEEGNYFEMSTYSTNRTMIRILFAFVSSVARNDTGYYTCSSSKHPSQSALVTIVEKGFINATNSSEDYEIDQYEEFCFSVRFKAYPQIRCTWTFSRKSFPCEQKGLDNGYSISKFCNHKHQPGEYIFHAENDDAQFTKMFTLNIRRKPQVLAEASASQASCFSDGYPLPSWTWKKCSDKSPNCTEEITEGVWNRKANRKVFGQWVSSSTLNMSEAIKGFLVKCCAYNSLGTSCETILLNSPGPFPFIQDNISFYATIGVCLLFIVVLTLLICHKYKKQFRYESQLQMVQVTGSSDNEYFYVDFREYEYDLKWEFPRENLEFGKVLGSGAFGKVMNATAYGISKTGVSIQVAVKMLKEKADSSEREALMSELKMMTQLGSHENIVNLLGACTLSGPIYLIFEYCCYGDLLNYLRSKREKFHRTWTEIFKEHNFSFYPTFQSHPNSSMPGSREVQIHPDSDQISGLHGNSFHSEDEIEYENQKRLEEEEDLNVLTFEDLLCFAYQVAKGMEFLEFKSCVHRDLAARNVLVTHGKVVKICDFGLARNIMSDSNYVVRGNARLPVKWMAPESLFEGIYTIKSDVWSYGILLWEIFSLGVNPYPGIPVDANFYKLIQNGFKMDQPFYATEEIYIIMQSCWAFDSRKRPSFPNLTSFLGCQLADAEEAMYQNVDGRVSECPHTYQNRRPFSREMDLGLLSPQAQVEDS
Nature of the experiment: MTS cellular proliferation assay. Conditions: 72 hour incubation, read-out: Growth inhibitory activity (in vivo EC50 nM).
From the text: as §1, §2

The test system of another experiment is Mda231 cells. Description: BME cell invasion assay (Boyden chamber principle). The conditions noted are these: 24 hours. The procedure: Representative compounds were tested for their ability to inhibit invasion of Mda231 cells. Invasive cells are a mark of metastatic tumors. The in vitro invasion assay is based on the Boyden chamber assay principle.
The 96-well BME cell invasion assay kit was used according to the manufacturers' protocol (Culturex™ catalog number: 3455-096-K). Prior to assay cells were serum starved for 18 hrs and the membrane of the top invasion chamber was coated with 50 μl of 0.83× BME solution and incubated overnight at 37° C./5% CO2. The next day cells were harvested and 40.000 cells/well in 50 μl medium without serum were plated to top chamber. 150 μl of medium with serum was added to bottom chamber. Compounds were added and cells were incubated for 24 hrs at 37° C./5% CO2. The remaining cells were assayed for standard curve.
After 24 hours, the bottom chamber was aspirated and washed twice with 200 μl wash buffer. The bottom chamber was transferred to a black assay plate. Cells migrated through the membrane are stained with Calcein-AM and measured with fluorescence spectrophotometry; 150 μl Calcein-AM/Cell dissociation solution was added and incubated at 37° C./5% CO2. After 1 hour, the plate was read at 485 nm excitation, 520 nm emission. Using standard curve, the fluorescence signal measured was converted to cell number and percent invasion was determined.

The structures appear in SMILES notation.

The term EC50 denotes the concentration that produces a half-maximal response. Regarding `CN(C)CCCCCNc1ccc2ncn3c4ccc5[nH]ncc5c4c(=O)c1c23` [(III)], the EC50 in the experiment with MV-4-11 was found to be 184 nM; on BaF3-D835N, 316 nM.

In the case of `CN1CCN(CCCNc2ccc3ncn4c5ccc6[nH]ncc6c5c(=O)c2c34)CC1` [(XVII)], in the experiment on Mda231 cells, the “inhibition of cell invasion” value was “slightly more effective than Symadex”.

Regarding `CN(C)CCCNc1ccc2ncn3c4ccc5[nH]ncc5c4c(=O)c1c23` [Compound (IV)], the EC50 in the experiment with MV-4-11 and at BaF3-D835N was 12 nM throughout.

`CCN(CC)CCCNc1ccc2ncn3c4ccc5[nH]ncc5c4c(=O)c1c23` [Compound (XV)]: the “inhibition of cell invasion” value in the experiment with Mda231 cells is listed as “slightly more effective than Symadex”.

Turning to `CCN(CC)CCNc1ccc2ncn3c4ccc(O)cc4c(=O)c1c23` [Symadex, 5-(2-(diethylamino)ethylamino)-8-hydroxy-6H-imidazo[4,5,1-de]acridin-6-one, reference compound], the EC50 turned out to be 13.1 nM in the experiment with MV-4-11 and 14.3 nM on BaF3-D835N.
